Assay results reported in patent US10464922B2, “Metalloenzyme inhibitor compounds” (NQP 1598 LTD., priority 2015, dated 2019).
≈ marks a conversion by molar mass, not a printed value.

Tests used:
[1] = system: Hedgehog signaling pathway Gli Reporter-NIH3T3 cells; assay: Gli luciferase reporter assay, Hedgehog signalling pathway activity; type: cell-based; details: mShh 1 μg/ml, 27 hours
Procedure: Hedgehog signaling pathway Gli Reporter-NIH3T3 cells were cultured in DMEM medium with 10% Calf serum, 1% Penn-strep, 500 μg/ml of Geneticin.
To perform the Gli luciferase reporter assay, Gli Reporter—NIH3T3 cells were seeded at 25,000 cells per well into white clear-bottom 96-well microplate in 100 μl of growth medium. Cells were incubated at 37° C., and 5% CO2 for overnight. The next day, remove the medium from wells and add 45 μl of diluted inhibitor in assay medium (Opti-MEM Reduced Serum Medium+0.5% calf serum+1% non-essential amino acids+1 mM Na-pyruvate+10 mM HEPES+1% Pen/Strep) per well. Incubate cells at 37° C. in a CO2 incubator for 2 hours. Then add 5 μl of diluted mShh in assay medium to wells (final [mShh]=1 μg/ml). Add 50 μl of assay medium to cell-free control wells. Cells were treated for 27 hours. After treatment, cells were lysed and luciferase assay was performed using ONE-Step luciferase assay system: add 50 μl of One-Step Luciferase reagent per well and rock at room temperature for ˜30 minutes. Luminescence was measured using a luminometer (BioTek Synergy™ 2 microplate reader). Compounds of the present invention are active in blockade of hedgehog signalling.

C. albicans (ATCC 90028) = assay: Minimum inhibitory concentration, in vitro broth microdilution assay (CLSI M27-A2); type: cell-based, Candida albicans; details: ATCC 90028, about 50% growth reduction, 2 days at 36° C., range tested 8-0.0078 μg/mL, values given as ranges; for MIC: Candida albicans, ATCC90028, 48 h, read-out: Candida albicans MIC
How it was run: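 CLSI M27-A2 broth microdilution: 11 two-fold DMSO dilutions into RPMI-1640+MOPS with 1×10^3–1×10^4 CFU/mL, 2 percent DMSO final. Incubated 2 days at 36° C; MIC from visual growth scoring, duplicates.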

A. fumigatus = A. fumigatus MIC at 100% growth inhibition (CLSI M38-A2); type: cell-based, Aspergillus fumigatus; details: 100% growth inhibition, range tested 8-0.0078 μg/mL, values given as ranges; for MIC: Aspergillus fumigatus, read-out: Aspergillus fumigatus MIC
Procedure: A. fumigatus MICs were determined at 100% growth inhibition following CLSI guidelines at a concentration range of 8-0.0078 μg/mL (CLSI M38-A2).

Row | SMILES | IC50 [1] [nM] | MIC (C. albicans (ATCC 90028)) [µg/mL] | MIC (A. fumigatus) [µg/mL] | Candida albicans MIC (C. albicans (ATCC 90028)) [µg/mL] | Aspergillus fumigatus MIC (A. fumigatus) [µg/mL]
1 | CC[C@@H]([C@H](C)O)n1ncn(-c2ccc(N3CCN(c4ccc(-c5ccc(C(F)(F)C(O)(Cn6cnnn6)c6ccccc6F)nc5)cc4)CC3)cc2)c1=O (mixture of isomers) [Example 38] | 38 | – | – | – | –
2 | CC[C@@H]([C@H](C)O)n1ncn(-c2ccc(N3CCN(c4ccc(-c5ccc(C(F)(F)C(O)(Cn6cnnn6)c6cccc(Cl)c6)nc5)cc4)CC3)cc2)c1=O (mixture of isomers) [Example 127, 4-(4-(4-(4-(6-(2-(3-chlorophenyl)-1,1-difluoro-2-hydroxy-3-(1H-tetrazol-1-yl)propyl)pyridin-3-yl)phenyl)piperazin-1-yl)phenyl)-2-((2S,3S)-2-hydroxypentan-3-yl)-2,4-dihydro-3H-1,2,4-triazol-3-one] | 20 | 0.1 to 1 | > 8 | – | –
3 | CC[C@@H]([C@H](C)O)n1ncn(-c2ccc(N3CCN(c4ccc(-c5ccc(C(F)(F)C(O)(Cn6cnnn6)c6ccc(F)cc6)nc5)cc4)CC3)cc2)c1=O (single isomer, unassigned; (+)) [63(+)] | 150 | 0.01 to 0.1 (≈ 0.0135 to 0.135 µM) | 0.062 to 0.25 (≈ 0.0837 to 0.337 µM) | – | –
4 | CC[C@@H]([C@H](C)O)n1ncn(-c2ccc(N3CCN(c4ccc(-c5ccc(C(F)(F)C(O)(Cn6cnnn6)c6cccc(F)c6)nc5)cc4)CC3)cc2)c1=O (single isomer, unassigned; (+)) [64(+)] | 160 | 0.01 to 0.1 (≈ 0.0135 to 0.135 µM) | 0.25 to 1 (≈ 0.337 to 1.35 µM) | – | –
5 | CC[C@@H]([C@H](C)O)n1ncn(-c2ccc(N3CCN(c4ccc(-c5ccc(C(F)(F)C(O)(Cn6ncnc6C)c6cccc(F)c6)nc5)cc4)CC3)cc2)c1=O (single isomer, unassigned; (+)) [85(+)] | 253 | 0.1 to 1 (≈ 0.133 to 1.33 µM) | > 8 | – | –
6 | CC[C@@H]([C@H](C)O)n1ncn(-c2ccc(N3CCN(c4ccc(-c5ccc(C(F)(F)C(O)(Cn6cnnn6)c6ccccc6F)nc5)cc4)CC3)cc2)c1=O (stereo partly drawn) [38(+)] | 120 | – | – | ≤0.0078 to 0.010 | 0.062 to 0.25
7 | CC[C@@H]([C@H](C)O)n1ncn(-c2ccc(N3CCN(c4ccc(-c5ccc(C(F)(F)C(O)(Cn6cnnn6)c6ccccc6F)nc5)cc4)CC3)cc2)c1=O (stereo partly drawn) [38(−)] | 59 | – | – | 0.10 to 1.0 | >8
8 | CC[C@@H]([C@H](C)O)n1ncn(-c2ccc(N3CCN(c4ccc(-c5ccc(C(F)(F)C(O)(Cn6cnc(C(F)(F)F)n6)c6ccccc6F)nc5)cc4)CC3)cc2)c1=O (stereo partly drawn) [106(+)] | 310 | > 8 | > 8 | – | –
9 | N#Cc1ccc(N2CCN(c3ccc(-c4ccc(C(F)(F)[C@](O)(Cn5cnnn5)c5ccc(F)cc5F)nc4)cc3)CC2)nc1 [Example 12] | 400 | 0.0078 to 0.01 (≈ 0.0127 to 0.0162 µM) | 0.25 to 1 (≈ 0.406 to 1.62 µM) | – | –
10 | CC[C@@H]([C@H](C)O)n1ncn(-c2ccc(N3CCN(c4ccc(-c5ccc(C(F)(F)[C@](O)(Cn6cnnn6)c6ccc(F)cc6F)nc5)cc4)CC3)cc2)c1=O [Example 20, 4-(4-(4-(4-(6-((R)-2-(2,4-difluorophenyl)-1,1-difluoro-2-hydroxy-3-(1H-tetrazol-1-yl)propyl)pyridin-3-yl)phenyl)piperazin-1-yl)phenyl)-2-((2S,3S)-2-hydroxypentan-3-yl)-2,4-dihydro-3H-1,2,4-triazol-3-one] | 190 | 0.0078 to 0.01 (≈ 0.0103 to 0.0132 µM) | 1 to 4 (≈ 1.32 to 5.27 µM) | – | –
11 | N#Cc1ccc(CN2CCN(c3ccc(-c4ccc(C(F)(F)[C@](O)(Cn5cnnn5)c5ccc(F)cc5F)nc4)cc3)CC2=O)cc1 [Example 28, (R)-4-((4-(4-(6-(2-(2,4-difluorophenyl)-1,1-difluoro-2-hydroxy-3-(1H-tetrazol-1-yl)propyl)pyridin-3-yl)phenyl)-2-oxopiperazin-1-yl)methyl)benzonitrile] | 580 | 0.0078 to 0.01 (≈ 0.0121 to 0.0156 µM) | > 8 | – | –
12 | CCC(C(C)O)n1ccn(-c2ccc(N3CCN(c4ccc(-c5ccc(C(F)(F)[C@](O)(Cn6cnnn6)c6ccc(F)cc6F)nc5)cc4)CC3)cc2)c1=O (stereo partly drawn) [Example 97, 1-(4-(4-(4-(6-((R)-2-(2,4-difluorophenyl)-1,1-difluoro-2-hydroxy-3-(1H-tetrazol-1-yl)propyl)pyridin-3-yl)phenyl)piperazin-1-yl)phenyl)-3-(2-hydroxypentan-3-yl)-1,3-dihydro-2H-imidazol-2-one] | – | 0.0078 to 0.01 (≈ 0.0103 to 0.0132 µM) | 0.25 to 1 (≈ 0.33 to 1.32 µM) | – | –
13 | O[C@@](Cn1cnnn1)(c1ccc(F)cc1F)C(F)(F)c1ccc(-c2ccc(N3CCN(c4ccc5ncn(Cc6ccccc6)c5c4)CC3)cc2)cn1 [Example 98, (R)-1-(5-(4-(4-(1-benzyl-1H-benzo [d]imidazol-6-yl)piperazin-1-yl)phenyl)pyridin-2-yl)-2-(2,4-difluorophenyl)-1,1-difluoro-3-(1H-tetrazol-1-yl) propan-2-ol] | – | 0.01 to 0.1 (≈ 0.0139 to 0.139 µM) | > 8 | – | –
14 | CC(O)C(F)(F)c1ccc(N2CCN(c3ccc(-c4ccc(C(F)(F)[C@](O)(Cn5cnnn5)c5ccc(F)cc5F)nc4)cc3)CC2)cn1 (stereo partly drawn) [Example 99, (2R)-1-(5-(4-(4-(6-(1,1-difluoro-2-hydroxypropyl)pyridin-3-yl)piperazin-1-yl)phenyl)pyridin-2-yl)-2-(2,4-difluorophenyl)-1,1-difluoro-3-(1H-tetrazol-1-yl) propan-2-ol] | – | 0.0078 to 0.01 (≈ 0.0114 to 0.0146 µM) | 0.25 to 1 (≈ 0.365 to 1.46 µM) | – | –
15 | OC(c1cc(F)cc(N2CCN(c3ccc(-c4ccc(C(F)(F)[C@](O)(Cn5cnnn5)c5ccc(F)cc5F)nc4)cc3)CC2)c1)C(F)(F)F (stereo partly drawn) [Example 100, (2R)-2-(2,4-difluorophenyl)-1,1-difluoro-1-(5-(4-(4-(3-fluoro-5-(2,2,2-trifluoro-1-hydroxyethyl)phenyl)piperazin-1-yl)phenyl)pyridin-2-yl)-3-(1H-tetrazol-1-yl) propan-2-ol] | – | 0.0078 to 0.01 (≈ 0.0111 to 0.0142 µM) | 0.25 to 1 (≈ 0.354 to 1.42 µM) | – | –
16 | CC(C)C(C(C)O)n1ncn(-c2ccc(N3CCN(c4ccc(-c5ccc(C(F)(F)[C@](O)(Cn6cnnn6)c6ccc(F)cc6F)nc5)cc4)CC3)cc2)c1=O (stereo partly drawn) [Example 103, 4-(4-(4-(4-(6-((R)-2-(2,4-difluorophenyl)-1,1-difluoro-2-hydroxy-3-(1H-tetrazol-1-yl)propyl)pyridin-3-yl)phenyl)piperazin-1-yl)phenyl)-2-(2-hydroxy-4-methylpentan-3-yl)-2,4-dihydro-3H-1,2,4-triazol-3-one] | – | 0.0078 to 0.01 (≈ 0.0101 to 0.0129 µM) | 0.062 to 0.25 (≈ 0.0802 to 0.323 µM) | – | –
17 | OC(c1cc(N2CCN(c3ccc(-c4ccc(C(F)(F)[C@](O)(Cn5cnnn5)c5ccc(F)cc5F)nc4)cc3)CC2)ccn1)C(F)(F)F (stereo partly drawn) [Example 104, (2R)-2-(2,4-difluorophenyl)-1,1-difluoro-3-(1H-tetrazol-1-yl)-1-(5-(4-(4-(2-(2,2,2-trifluoro-1-hydroxyethyl)pyridin-4-yl)piperazin-1-yl)phenyl)pyridin-2-yl)propan-2-ol] | – | 0.0078 to 0.01 (≈ 0.0113 to 0.0145 µM) | 0.25 to 1 (≈ 0.363 to 1.45 µM) | – | –
18 | O=C(Nc1ccc(N2CCN(c3ccc(-c4ccc(C(F)(F)[C@](O)(Cn5cnnn5)c5ccc(F)cc5F)nc4)cc3)CC2)cc1)C(O)CC(F)(F)F (stereo partly drawn) [Example 105, N-(4-(4-(4-(6-((R)-2-(2,4-difluorophenyl)-1,1-difluoro-2-hydroxy-3-(1H-tetrazol-1-yl)propyl)pyridin-3-yl)phenyl)piperazin-1-yl)phenyl)-4,4,4-trifluoro-2-hydroxybutanamide] | – | 0.0078 to 0.01 (≈ 0.0105 to 0.0134 µM) | > 8 | – | –
19 | OC(c1cn(-c2ccc(N3CCN(c4ccc(-c5ccc(C(F)(F)[C@](O)(Cn6cnnn6)c6ccc(F)cc6F)nc5)cc4)CC3)cn2)nn1)C(F)(F)F (stereo partly drawn) [Example 111, (2R)-2-(2,4-difluorophenyl)-1,1-difluoro-3-(1H-tetrazol-1-yl)-1-(5-(4-(4-(6-(4-(2,2,2-trifluoro-1-hydroxyethyl)-1H-1,2,3-triazol-1-yl)pyridin-3-yl)piperazin-1-yl)phenyl)pyridin-2-yl) propan-2-ol] | – | 0.0078 to 0.01 (≈ 0.0103 to 0.0132 µM) | 0.25 to 1 (≈ 0.331 to 1.32 µM) | – | –
20 | CC(C)(C)CC(O)c1ccc(N2CCN(c3ccc(-c4ccc(C(F)(F)[C@](O)(Cn5cnnn5)c5ccc(F)cc5F)nc4)cc3)CC2)cn1 (stereo partly drawn) [Example 118, 1-(5-(4-(4-(6-((R)-2-(2,4-difluorophenyl)-1,1-difluoro-2-hydroxy-3-(1H-tetrazol-1-yl)propyl)pyridin-3-yl)phenyl)piperazin-1-yl)pyridin-2-yl)-3,3-dimethylbutan-1-ol] | – | 0.0078 to 0.01 (≈ 0.0113 to 0.0145 µM) | 0.25 to 1 (≈ 0.362 to 1.45 µM) | – | –
21 | CC[C@@H]([C@H](C)O)n1ncn(-c2ccc(N3CCN(c4ccc(-c5ccc(C(F)(F)[C@](O)(Cn6cnnn6)c6ccc(F)cc6F)nc5)cc4)CC3)cn2)c1=O [Example 124, 4-(5-(4-(4-(6-((R)-2-(2,4-difluorophenyl)-1,1-difluoro-2-hydroxy-3-(1H-tetrazol-1-yl)propyl)pyridin-3-yl)phenyl)piperazin-1-yl)pyridin-2-yl)-2-((2S,3S)-2-hydroxypentan-3-yl)-2,4-dihydro-3H-1,2,4-triazol-3-one] | – | 0.01 to 0.1 (≈ 0.0132 to 0.132 µM) | – | – | 0.25 to 1.0
